Measured values from patent publication US20230257364A1, “PYRIDAZINONE-BASED COMPOUNDS AS AXL, C-MET, AND MER INHIBITORS AND METHODS OF USE THEREOF” (CMG Pharmaceutical Co., Ltd., priority 2022, published 2023).
Read-outs that look alike come from different tables or passages of the source.

What was measured:
Format in all cases: biochemical
C-MET = C-MET (Homo sapiens, UniProt P08581); test: Enzymatic kinase assay (ADP-GLO), C-MET
Protocol: (§1) This example illustrates an enzymatic assay to determine the inhibitory activity of exemplary compounds of Formula (I) in an aspect of the invention.
All the kinase reactions were performed in 5 μL using tyrosine kinase buffer with 0.2 μg/μL poly (Glu4, Tyr1) substrate, 10 μM ATP, serial dilution of the inhibitor, and incubated at room temperature for 60 min. After the indicated incubation times, 5 μL ADP-GLO™ reagent (Promega, Madison, Wis.) was added to the reactions and the plate was incubated at room temperature for 40 min. […] All 384-well assay plates were read using a GLOMAX™ Discover Microplate Luminometer from Promega (Madison, Wis.). To plot, analyze the data and calculate all kinase reaction biochemical values, both Microsoft Excel and Prism from GraphPad 7 Software (La Jolla, Calif.) were used.

AXL = target: T1, AXL (Homo sapiens, UniProt P30530); test: Enzymatic kinase assay (ADP-GLO), AXL; conditions: 10 μM ATP, poly (Glu4, Tyr1) substrate, 60 min room temperature, luminescence
T1 sequence (P30530 26-894): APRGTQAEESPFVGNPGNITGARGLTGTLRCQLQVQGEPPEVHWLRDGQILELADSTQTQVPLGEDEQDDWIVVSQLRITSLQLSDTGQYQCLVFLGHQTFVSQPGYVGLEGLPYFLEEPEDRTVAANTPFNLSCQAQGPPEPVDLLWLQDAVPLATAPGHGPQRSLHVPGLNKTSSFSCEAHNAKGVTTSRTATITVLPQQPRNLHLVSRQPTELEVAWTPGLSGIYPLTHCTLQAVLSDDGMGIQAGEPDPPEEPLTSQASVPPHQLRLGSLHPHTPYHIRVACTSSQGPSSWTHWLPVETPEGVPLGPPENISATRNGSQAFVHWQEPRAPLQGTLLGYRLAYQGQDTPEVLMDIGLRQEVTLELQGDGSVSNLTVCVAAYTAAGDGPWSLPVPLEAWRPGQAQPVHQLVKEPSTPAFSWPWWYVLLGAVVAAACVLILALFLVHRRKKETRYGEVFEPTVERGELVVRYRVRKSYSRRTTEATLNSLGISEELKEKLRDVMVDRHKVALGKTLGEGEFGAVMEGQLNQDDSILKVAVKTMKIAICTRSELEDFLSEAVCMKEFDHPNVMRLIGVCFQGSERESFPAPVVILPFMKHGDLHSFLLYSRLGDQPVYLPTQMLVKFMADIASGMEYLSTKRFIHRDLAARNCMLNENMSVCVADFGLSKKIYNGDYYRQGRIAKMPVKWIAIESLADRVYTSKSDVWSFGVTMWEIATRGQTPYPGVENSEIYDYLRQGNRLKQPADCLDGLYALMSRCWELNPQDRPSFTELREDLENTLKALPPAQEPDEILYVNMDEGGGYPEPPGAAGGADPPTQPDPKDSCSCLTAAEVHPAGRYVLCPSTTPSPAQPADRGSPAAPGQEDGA
Protocol: as §1
(§2) All the kinase reactions were performed in 5 μL using tyrosine kinase buffer with 0.2 μg/μL poly (Glu4, Tyr1) substrate, 10 μM ATP, serial dilution of the inhibitor, and incubated at room temperature for 60 min. After the indicated incubation times, 5 μL ADP-GLO™ reagent (Promega, Madison, Wis.) was added to the reactions and the plate was incubated at room temperature for 40 min. Then, 10 μL of kinase detection reagent was added and after an incubation time of 40 min, luminescence was recorded and IC50 values were determined (Table 1). All 384-well assay plates were read using a GLOMAX™ Discover Microplate Luminometer from Promega (Madison, Wis.). To plot, analyze the data and calculate all kinase reaction biochemical values, both Microsoft Excel and Prism from GraphPad 7 Software (La Jolla, Calif.) were used.

MER = target: T2, MER (Homo sapiens, UniProt Q12866); test: Enzymatic kinase assay (ADP-GLO), MER; conditions: 10 μM ATP, poly (Glu4, Tyr1) substrate, 60 min room temperature, luminescence
T2 sequence (Q12866 21-999): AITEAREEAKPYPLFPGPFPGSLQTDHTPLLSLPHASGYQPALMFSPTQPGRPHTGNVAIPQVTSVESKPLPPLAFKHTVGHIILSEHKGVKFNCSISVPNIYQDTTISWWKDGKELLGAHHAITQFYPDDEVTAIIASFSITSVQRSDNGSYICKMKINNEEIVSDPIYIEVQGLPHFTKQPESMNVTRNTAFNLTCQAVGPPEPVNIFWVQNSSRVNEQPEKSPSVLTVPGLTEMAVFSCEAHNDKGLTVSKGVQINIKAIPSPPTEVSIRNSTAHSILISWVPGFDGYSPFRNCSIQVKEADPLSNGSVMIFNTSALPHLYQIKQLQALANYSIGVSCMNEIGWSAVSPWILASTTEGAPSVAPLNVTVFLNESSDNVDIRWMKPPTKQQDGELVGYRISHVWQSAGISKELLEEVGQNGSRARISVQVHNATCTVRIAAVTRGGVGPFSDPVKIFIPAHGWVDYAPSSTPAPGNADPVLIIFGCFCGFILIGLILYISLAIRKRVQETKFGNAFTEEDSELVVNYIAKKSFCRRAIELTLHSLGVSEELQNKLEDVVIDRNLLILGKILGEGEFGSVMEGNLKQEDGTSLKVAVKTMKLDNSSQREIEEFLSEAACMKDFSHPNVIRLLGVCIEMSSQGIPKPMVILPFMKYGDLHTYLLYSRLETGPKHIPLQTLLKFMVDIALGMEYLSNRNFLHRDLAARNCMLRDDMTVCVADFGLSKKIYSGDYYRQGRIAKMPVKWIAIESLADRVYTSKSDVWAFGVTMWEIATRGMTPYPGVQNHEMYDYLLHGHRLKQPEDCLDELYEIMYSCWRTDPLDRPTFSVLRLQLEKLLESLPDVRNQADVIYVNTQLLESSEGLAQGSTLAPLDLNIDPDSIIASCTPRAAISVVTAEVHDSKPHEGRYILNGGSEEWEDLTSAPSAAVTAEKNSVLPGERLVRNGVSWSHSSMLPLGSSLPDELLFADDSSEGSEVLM
Protocol: as §1, §2

[1] = 10 μM ATP, poly (Glu4, Tyr1) substrate, 60 min room temperature, luminescence, read-out: Enzymatic assay IC50 (nM) C-MET

C-MET, sequence (P08581 25-1390): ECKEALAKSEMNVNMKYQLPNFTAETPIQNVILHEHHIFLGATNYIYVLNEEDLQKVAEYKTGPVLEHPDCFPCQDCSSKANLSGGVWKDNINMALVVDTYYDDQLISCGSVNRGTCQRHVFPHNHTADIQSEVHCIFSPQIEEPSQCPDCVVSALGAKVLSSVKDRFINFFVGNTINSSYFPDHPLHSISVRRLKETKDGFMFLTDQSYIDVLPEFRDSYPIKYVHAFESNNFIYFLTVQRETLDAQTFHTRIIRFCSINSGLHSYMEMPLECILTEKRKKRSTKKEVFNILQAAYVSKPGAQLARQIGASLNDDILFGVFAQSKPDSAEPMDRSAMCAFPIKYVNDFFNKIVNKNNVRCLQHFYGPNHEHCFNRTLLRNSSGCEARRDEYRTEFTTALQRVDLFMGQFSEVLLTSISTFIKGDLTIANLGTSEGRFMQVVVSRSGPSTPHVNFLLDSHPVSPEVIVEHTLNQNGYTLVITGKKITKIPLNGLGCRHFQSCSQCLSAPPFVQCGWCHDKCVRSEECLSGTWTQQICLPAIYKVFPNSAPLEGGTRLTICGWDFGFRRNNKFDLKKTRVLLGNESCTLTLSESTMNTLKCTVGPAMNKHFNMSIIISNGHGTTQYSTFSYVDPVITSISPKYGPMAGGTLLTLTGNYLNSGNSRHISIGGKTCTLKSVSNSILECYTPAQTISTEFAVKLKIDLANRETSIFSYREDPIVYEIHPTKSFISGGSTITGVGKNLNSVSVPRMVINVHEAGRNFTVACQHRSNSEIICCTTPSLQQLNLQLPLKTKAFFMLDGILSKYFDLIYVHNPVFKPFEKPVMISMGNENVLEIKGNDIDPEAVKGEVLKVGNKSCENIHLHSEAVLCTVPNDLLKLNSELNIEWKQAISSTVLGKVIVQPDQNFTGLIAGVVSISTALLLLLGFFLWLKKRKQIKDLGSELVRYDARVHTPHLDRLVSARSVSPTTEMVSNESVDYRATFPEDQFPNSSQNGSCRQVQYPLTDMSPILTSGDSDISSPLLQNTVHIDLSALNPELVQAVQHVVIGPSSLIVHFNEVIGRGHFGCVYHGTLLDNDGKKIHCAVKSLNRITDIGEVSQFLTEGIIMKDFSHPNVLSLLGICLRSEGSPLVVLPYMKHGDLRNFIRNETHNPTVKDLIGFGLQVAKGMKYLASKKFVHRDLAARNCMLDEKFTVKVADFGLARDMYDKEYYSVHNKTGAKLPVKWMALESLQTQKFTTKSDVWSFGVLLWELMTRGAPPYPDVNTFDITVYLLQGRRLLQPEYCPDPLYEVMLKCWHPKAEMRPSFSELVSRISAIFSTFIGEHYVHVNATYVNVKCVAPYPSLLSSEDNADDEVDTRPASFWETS

Row | IC50 (C-MET; [1]) | IC50 (AXL) | IC50 (MER) | IC50 (C-MET) | SMILES
1 | > 1000 nM | < 1000 nM | < 1000 nM |  | Nc1nccc(Oc2ccc(NC(=O)c3ccnn(-c4ccc(F)cc4)c3=O)cc2F)c1-c1ccc(Oc2ccccc2)cc1 [Example 20, N-(4-(2-amino-3-(4-phenoxyphenyl)pyridin-4-yloxy)-3-fluorophenyl)-2-4-(fluorophenyl)-3-oxo-2,3-dihydropyridazine-4-carboxamide]
2 | > 1000 nM | < 10 nM | < 100 nM |  | CCCn1cc(-c2c(Oc3ccc(NC(=O)c4ccnn(-c5ccc(F)cc5)c4=O)cc3F)ccnc2N)cn1 [Example 21, N-(4-(2-amino-3-(1-propyl-1H-pyrazol-4-yl)pyridin-4-yloxy)-3-fluorophenyl)-2-(4-fluorophenyl)-3-oxo-2,3-dihydropyridazine-4-carboxamide]
3 | < 100 nM | < 10 nM | < 100 nM |  | CC(C)(C#Cc1c(Oc2ccc(NC(=O)c3ccnn(-c4ccc(F)cc4)c3=O)cc2F)ccnc1N)N1CCNCC1 [Example 22, N-(4-(2-amino-3-(3-methyl-3-(piperazin-1-yl)but-1-ynyl)pyridin-4-yloxy)-3-fluorophenyl)-2-(4-fluorophenyl)-3-oxo-2,3-dihydropyridazine-4-carboxamide]
4 | < 100 nM | < 10 nM | < 100 nM |  | COCCN1CCN(C(C)(C)C#Cc2c(Oc3ccc(NC(=O)c4ccnn(-c5ccc(F)cc5)c4=O)cc3F)ccnc2N)CC1 [Example 23, N-(4-(2-amino-3-(3-(4-(2-methoxyethyl)piperazin-1-yl)-3-methylbut-1-ynyl)pyridine-4-yloxy)-3-fluorophenyl)-2-(4-fluorophenyl)-3-oxo-2,3-dihydropyridazine-4-carboxamide]
5 | < 100 nM | < 10 nM | < 10 nM |  | COCCN1CCN(CC#Cc2c(Oc3ccc(NC(=O)c4ccnn(-c5ccc(F)cc5)c4=O)cc3F)ccnc2N)CC1 [Example 24]
6 | < 10 nM | < 10 nM | > 1000 nM |  | Nc1nccc(Oc2ccc(NC(=O)c3ccnn(-c4ccc(F)cc4)c3=O)cc2F)c1C#CC1CCNCC1 [Example 25, N-(4-(2-amino-3-(piperidin-4-ylethynyl)pyridine-4-yloxy)-3-fluorophenyl)-2-(4-fluorophenyl)-3-oxo-2,3-dihydropyridazine-4-carboxamide]
7 | < 10 nM | < 10 nM | > 1000 nM |  | CN1CCC(C#Cc2c(Oc3ccc(NC(=O)c4ccnn(-c5ccc(F)cc5)c4=O)cc3F)ccnc2N)CC1 [Example 26, N-(4-(2-amino-3-((1-methylpiperidin-4-yl)ethynyl)pyridin-4-yloxy)-3-fluorophenyl)-2-(4-fluorophenyl)-3-oxo-2,3-dihydropyridazine-4-carboxamide]
8 | < 10 nM | < 10 nM | < 10 nM |  | COCCN1CCC(C#Cc2c(Oc3ccc(NC(=O)c4ccnn(-c5ccc(F)cc5)c4=O)cc3F)ccnc2N)CC1 [Example 27, N-(4-(2-amino-3-((1-(2-methoxyethyl)piperidin-4-yl)ethynyl)pyridin-4-yloxy)-3-fluorophenyl)-2-(4-fluorophenyl)-3-oxo-2,3-dihydropyridazine-4-carboxamide]
9 | < 10 nM | < 10 nM | < 100 nM |  | CC(C)(C#Cc1c(Oc2ccc(NC(=O)c3ccnn(-c4ccc(F)cc4)c3=O)cc2F)ccnc1N)N1CCOCC1 [Example 28, N-(4-(2-amino-3-(3-methyl-3-morpholinobut-1-ynl)pyridin-4-yloxy)-3-fluorophenyl)-2-(4-fluorophenyl)-3-oxo-2,3-dihydropyridazine-4-carboxamide]
10 | < 10 nM | < 10 nM | < 10 nM |  | CN1CCN(CC#Cc2c(Oc3ccc(NC(=O)c4ccnn(-c5ccc(F)cc5)c4=O)cc3F)ccnc2N)CC1 [Example 29, N-(4-(2-amino-3-(3-(4-methylpiperazin-1-yl)prop-1-ynyl)pyridin-4-yloxy)-3-fluorophenyl)-2-(4-fluorophenyl)-3-oxo-2,3-dihydropyridazine-4-carboxamide]
11 |  | < 10 nM | < 10 nM | < 10 nM | Nc1nccc(Oc2ccc(NC(=O)c3ccnn(-c4ccc(F)cc4)c3=O)cc2F)c1C#CCC1CCNCC1 [Example 30, N-(4-(2-amino-3-(3-(piperidin-4-yl)prop-1-ynyl)pyridin-4-yloxy)-3-fluorophenyl)-2-(4-fluorophenyl)-3-oxo-2,3-dihydropyridazine-4-carboxamide]
12 | < 10 nM | < 100 nM | < 100 nM |  | COCCN1CCC(CC#Cc2c(Oc3ccc(NC(=O)c4ccnn(-c5ccc(F)cc5)c4=O)cc3F)ccnc2N)CC1 [Example 31, N-(4-(2-amino-3-(3-(1-(2-methoxyethyl)piperidin-4-yl)prop-1-ynyl)pyridin-4-yloxy)-3-fluorophenyl)-2-(4-fluorophenyl)-3-oxo-2,3-dihydropyridazine-4-carboxamide]
13 | < 100 nM | < 100 nM | < 100 nM |  | CC(C)N1CCC(CC#Cc2c(Oc3ccc(NC(=O)c4ccnn(-c5ccc(F)cc5)c4=O)cc3F)ccnc2N)CC1 [Example 32, N-(4-(2-amino-3-(3-(1-isopropylpiperidin-4-yl)prop-1-ynyl)pyridin-4-yloxy)-3-fluorophenyl)-2-(4-fluorophenyl)-3-oxo-2,3-dihydropyridazine-4-carboxamide]
